# Reference: ChEMBL document CHEMBL3885861, “Open TG-GATES”
# Organism: Rattus norvegicus
# Experiment: Open TG-GATES - Regimen: Single
# Type: toxicity, organism-based, Sprague-Dawley
# Design: regimen Single, gender Male, age 6 weeks
# Conditions: in vivo, po, 30 mg/kg, route gavage, dose level Low; for APTT / Bas / Eos / Fbg / Hb / Ht / Lym / MCH / MCHC / MCV / Mono / Neu / PT / Plat / RBC / Ret / WBC: tissue Blood; for KIDNEY_L / KIDNEY_R / KIDNEY_TOTAL: tissue Kidney; for LIVER: tissue Liver; for A/G / ALP / ALT / AST / BUN / CRE / Ca / Cl / DBIL / GLC / IP / K / LDH / Na / PL / RALB / TBIL / TC / TG / TP / gamma-GTP: tissue Plasma
smiles,measurement,setting,value
ClC(Cl)(Cl)Cl [CARBON TETRACHLORIDE],TERMINAL_BW,3 h,206.6 g
same,APTT,3 h,16.5 s
same,Bas,3 h,0%
same,Eos,3 h,0.8%
same,Fbg,3 h,259.6 mg/dL
same,Hb,3 h,13 g/dL
same,Ht,3 h,37.5%
same,Lym,3 h,76.6%
same,MCH,3 h,21.2 pg
same,MCHC,3 h,34.6%
same,MCV,3 h,61.4 fL
same,Mono,3 h,3.4%
same,Neu,3 h,19%
same,PT,3 h,12.3 s
same,Plat,3 h,127.9 x10_4/uL
same,RBC,3 h,610.8 x10_4/ul
same,Ret,3 h,8.6%
same,WBC,3 h,95.4 x10_2/uL
same,KIDNEY_L,3 h,0.9 g
same,KIDNEY_R,3 h,0.9 g
same,KIDNEY_TOTAL,3 h,1.9 g
same,LIVER,3 h,9.7 g
same,A/G,3 h,1.6
same,ALP,3 h,1090.2 IU/L
same,ALT,3 h,39.6 IU/L
same,AST,3 h,67.4 IU/L
same,BUN,3 h,11.8 mg/dL
same,CRE,3 h,0.4 mg/dL
same,Ca,3 h,10.9 mg/dL
same,Cl,3 h,104 meq/L
same,DBIL,3 h,0.1 mg/dL
same,GLC,3 h,192.6 mg/dL
same,IP,3 h,9.8 mg/dL
same,K,3 h,3.8 meq/L
same,LDH,3 h,198.8 IU/L
same,Na,3 h,140.2 meq/L
same,PL,3 h,169.2 mg/dL
same,RALB,3 h,3.4 g/dL
same,TBIL,3 h,0.2 mg/dL
same,TC,3 h,86 mg/dL
same,TG,3 h,81.2 mg/dL
same,TP,3 h,5.6 g/dL
same,gamma-GTP,3 h,1.4 IU/L
same,TERMINAL_BW,6 h,205.6 g
same,APTT,6 h,17.9 s
same,Bas,6 h,0%
same,Eos,6 h,1%
same,Fbg,6 h,242 mg/dL
same,Hb,6 h,13.1 g/dL
same,Ht,6 h,37.4%
same,Lym,6 h,72.8%
same,MCH,6 h,22 pg
same,MCHC,6 h,34.9%
same,MCV,6 h,63.1 fL
same,Mono,6 h,2.6%
same,Neu,6 h,22.8%
same,PT,6 h,12.7 s
same,Plat,6 h,134.6 x10_4/uL
same,RBC,6 h,593.6 x10_4/ul
same,Ret,6 h,8.6%
same,WBC,6 h,78.1 x10_2/uL
same,KIDNEY_L,6 h,0.9 g
same,KIDNEY_R,6 h,0.9 g
same,KIDNEY_TOTAL,6 h,1.8 g
same,LIVER,6 h,9.4 g
same,A/G,6 h,1.7
same,ALP,6 h,1051 IU/L
same,ALT,6 h,29.4 IU/L
same,AST,6 h,63.8 IU/L
same,BUN,6 h,10.2 mg/dL
same,CRE,6 h,0.4 mg/dL
same,Ca,6 h,10.6 mg/dL
same,Cl,6 h,104.4 meq/L
same,DBIL,6 h,0.1 mg/dL
same,GLC,6 h,195 mg/dL
same,IP,6 h,9.4 mg/dL
same,K,6 h,4.1 meq/L
same,LDH,6 h,221.2 IU/L
same,Na,6 h,139.6 meq/L
same,PL,6 h,159 mg/dL
same,RALB,6 h,3.5 g/dL
same,TBIL,6 h,0.2 mg/dL
same,TC,6 h,79 mg/dL
same,TG,6 h,91.2 mg/dL
same,TP,6 h,5.6 g/dL
same,gamma-GTP,6 h,1 IU/L
same,TERMINAL_BW,9 h,201.5 g
same,APTT,9 h,17.2 s
same,Bas,9 h,0%
same,Eos,9 h,0.8%
same,Fbg,9 h,229.4 mg/dL
same,Hb,9 h,12.7 g/dL
same,Ht,9 h,36.5%
same,Lym,9 h,74%
same,MCH,9 h,21.4 pg
same,MCHC,9 h,34.8%
same,MCV,9 h,61.6 fL
same,Mono,9 h,2.2%
same,Neu,9 h,22.6%
same,PT,9 h,12.5 s
same,Plat,9 h,126.6 x10_4/uL
same,RBC,9 h,593.2 x10_4/ul
same,Ret,9 h,9.1%
same,WBC,9 h,76.5 x10_2/uL
same,KIDNEY_L,9 h,0.9 g
same,KIDNEY_R,9 h,0.9 g
same,KIDNEY_TOTAL,9 h,1.8 g
same,LIVER,9 h,8.6 g
same,A/G,9 h,1.6
same,ALP,9 h,1042.2 IU/L
same,ALT,9 h,29.8 IU/L
same,AST,9 h,58 IU/L
same,BUN,9 h,10 mg/dL
same,CRE,9 h,0.4 mg/dL
same,Ca,9 h,10.4 mg/dL
same,Cl,9 h,103.8 meq/L
same,DBIL,9 h,0.09 mg/dL
same,GLC,9 h,196.8 mg/dL
same,IP,9 h,10.6 mg/dL
same,K,9 h,3.6 meq/L
same,LDH,9 h,174 IU/L
same,Na,9 h,140.2 meq/L
same,PL,9 h,150.8 mg/dL
same,RALB,9 h,3.3 g/dL
same,TBIL,9 h,0.2 mg/dL
same,TC,9 h,75.8 mg/dL
same,TG,9 h,57.2 mg/dL
same,TP,9 h,5.4 g/dL
same,gamma-GTP,9 h,0.8 IU/L
same,TERMINAL_BW,24 h,211.3 g
same,APTT,24 h,19.1 s
same,Bas,24 h,0%
same,Eos,24 h,0.8%
same,Fbg,24 h,229.6 mg/dL
same,Hb,24 h,13.6 g/dL
same,Ht,24 h,38.8%
same,Lym,24 h,84.4%
same,MCH,24 h,22.4 pg
same,MCHC,24 h,35%
same,MCV,24 h,64 fL
same,Mono,24 h,2.6%
same,Neu,24 h,11.6%
same,PT,24 h,12.1 s
same,Plat,24 h,132.2 x10_4/uL
same,RBC,24 h,606.4 x10_4/ul
same,Ret,24 h,8%
same,WBC,24 h,101.3 x10_2/uL
same,KIDNEY_L,24 h,1 g
same,KIDNEY_R,24 h,1 g
same,KIDNEY_TOTAL,24 h,2 g
same,LIVER,24 h,10.4 g
same,A/G,24 h,1.6
same,ALP,24 h,1115.2 IU/L
same,ALT,24 h,42.4 IU/L
same,AST,24 h,69.6 IU/L
same,BUN,24 h,14.8 mg/dL
same,CRE,24 h,0.4 mg/dL
same,Ca,24 h,10.7 mg/dL
same,Cl,24 h,103.8 meq/L
same,DBIL,24 h,0.07 mg/dL
same,GLC,24 h,202 mg/dL
same,IP,24 h,7.7 mg/dL
same,K,24 h,3.8 meq/L
same,LDH,24 h,188.8 IU/L
same,Na,24 h,140.6 meq/L
same,PL,24 h,155.2 mg/dL
same,RALB,24 h,3.5 g/dL
same,TBIL,24 h,0.1 mg/dL
same,TC,24 h,81.2 mg/dL
same,TG,24 h,61.8 mg/dL
same,TP,24 h,5.7 g/dL
same,gamma-GTP,24 h,1.4 IU/L
